Data taken from patent publication US20250313533A1, “QUINOLINE CARBOXYLIC ACID ESTER COMPOUND AND PREPARATION METHOD AND USE THEREOF” (priority 2019, published 2025).

Columns and labels:
[1] = test system: pathogenic bacteria causing bacterial angular leaf spot in cucumbers; assay: In vitro bactericidal activity, bacterial angular leaf spot in cucumbers; assay type: cell-based, pseudomonas; settings: read-out: inhibitory rate; for inhibition at 1 ppm: dosage 1 ppm; for inhibition at 5 ppm: dosage 5 ppm
[2] = test system: pathogenic bacteria causing bacterial wilt in tobacco; assay: whole plant or invertebrate; assay type: cell-based, ralstonia; settings: read-out: inhibitory rate
[3] = test system: pathogenic bacteria causing black shank in potatoes; assay: In vitro bactericidal activity, black shank in potatoes; assay type: cell-based; settings: read-out: inhibitory rate; for inhibition at 1 ppm: dosage 1 ppm; for inhibition at 5 ppm: dosage 5 ppm
[4] = test system: pathogenic bacteria causing stem rot in sweet potatoes; assay: In vitro bactericidal activity, stem rot in sweet potatoes; assay type: cell-based, dikia; settings: read-out: inhibitory rate; for inhibition at 1 ppm: dosage 1 ppm; for inhibition at 5 ppm: dosage 5 ppm
[5] = test system: pathogenic bacteria causing bacterial blight in rice; assay: whole plant or invertebrate; assay type: cell-based, xanthomonas; settings: read-out: inhibitory rate
[6] = test system: pathogenic bacteria causing fruit blotch in watermelons; assay: In vitro bactericidal activity, fruit blotch in watermelons; assay type: cell-based, acidovorax; settings: read-out: inhibitory rate; for inhibition at 1 ppm: dosage 1 ppm; for inhibition at 5 ppm: dosage 5 ppm
[7] = test system: pathogenic bacteria causing black rot in Chinese cabbages; assay: In vitro bactericidal activity, black rot in Chinese cabbages; assay type: cell-based, xanthomonas; settings: Xanthomonas, read-out: inhibitory rate; for inhibition at 1 ppm: dosage 1 ppm; for inhibition at 5 ppm: dosage 5 ppm
[8] = test system: pathogenic bacteria causing bacterial wilt in cassava; assay: organism not typed; assay type: cell-based; settings: read-out: inhibitory rate
[9] = test system: pathogenic bacteria causing fire blight in pears; assay: In vitro bactericidal activity, fire blight in pears; assay type: cell-based, erwinia; settings: Erwinia, read-out: inhibitory rate; for inhibition at 1 ppm: dosage 1 ppm; for inhibition at 5 ppm: dosage 5 ppm
[10] = test system: black shank in potatoes; assay: Living crops in vivo protective activity, potatoes (root irrigation); settings: Solanum tuberosum, read-out: efficacy against black shank in potatoes; for pest or weed control at 5 ppm: dosage 5 ppm; for pest or weed control at 10 ppm: dosage 10 ppm
Protocol: Root irrigation was carried out on the potatoes for tests according to the designed concentration of the agents. The dosage for each plant was 200 mL and was kept consistent (also for the control). The black shank bacteria were inoculated on the second day after the application. The results were investigated according to the disease condition.

[11] = test system: indoor potted cucumber seedlings; assay: Effect of improving growth and development of crops; assay type: in vivo; set-up: Rate of growth rate increase (%): concentration or dose not given beside the values; settings: versus blank control; for Rate of chlorophyll content increase (%) / Rate of leaf area increase (%): 14 days after application; for Rate of growth rate increase (%): plant height 14 days after application; for Rate of leaf area increase (%): second leaf
Procedure, shortened: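 Growth effects were scored as percent increases in height growth rate, second-leaf area and chlorophyll (SPAD meter), comparing values taken before and 14 days after application.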

[12] = test system: cucumber seedlings; assay: Safety for plant growth after application; assay type: in vivo; settings: dosage 200 ppm
Procedure, shortened: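 Using pot-grown cucumber seedlings indoors, we recorded plant height growth rate together with chlorophyll content and leaf area following compound application.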

[13] = test system: bacterial wilt in tobacco; assay: whole plant or invertebrate; settings: Nicotiana tabacum, read-out: efficacy against bacterial wilt in tobacco
[14] = test system: stem rot in sweet potatoes; assay: whole plant or invertebrate; settings: read-out: efficacy against stem rot in sweet potatoes
[15] = test system: bacterial blight in rice; assay: whole plant or invertebrate; settings: Oryza sativa, read-out: efficacy against bacterial blight in rice
[16] = test system: fruit blotch in watermelons; assay: whole plant or invertebrate; settings: read-out: efficacy against fruit blotch in watermelons
[17] = test system: soft rot in Chinese cabbages; assay: whole plant or invertebrate; settings: 48 h, read-out: efficacy against soft rot in Chinese cabbages

| Structure (SMILES) | inhibition at 1 ppm [1] [%] | inhibition at 5 ppm [1] [%] | inhibition at 1 ppm [2] [%] | inhibition at 5 ppm [2] [%] | inhibition at 1 ppm [3] [%] | inhibition at 5 ppm [3] [%] | inhibition at 1 ppm [4] [%] | inhibition at 5 ppm [4] [%] | inhibition at 1 ppm [5] [%] | inhibition at 5 ppm [5] [%] | inhibition at 1 ppm [6] [%] | inhibition at 5 ppm [6] [%] | inhibition at 1 ppm [7] [%] | inhibition at 5 ppm [7] [%] | inhibition at 1 ppm [8] [%] | inhibition at 5 ppm [8] [%] | inhibition at 1 ppm [9] [%] | inhibition at 5 ppm [9] [%] | pest or weed control at 5 ppm [10] [%] | pest or weed control at 10 ppm [10] [%] | also measured |
| --- | --- | --- | --- | --- | --- | --- | --- | --- | --- | --- | --- | --- | --- | --- | --- | --- | --- | --- | --- | --- | --- |
| CC(C)(C)Oc1cc2c(cc1F)c(=O)c(C(=O)OCCO)cn2C1CC1 [Compound 270] | ≥ 90 | ≥ 90 | ≥ 90 | ≥ 90 | ≥ 90 | ≥ 90 | ≥ 90 | ≥ 90 | ≥ 90 | ≥ 90 | ≥ 90 | ≥ 90 | ≥ 90 | ≥ 90 | ≥ 90 | ≥ 90 | ≥ 90 | ≥ 90 | ≥ 80 | ≥ 90 | Rate of chlorophyll content increase (%) [11]: 10%; Rate of growth rate increase (%) [11]: 9%; Rate of leaf area increase (%) [11]: 12%; safety for plant growth (discoloration, necrosis, wilt, malformation) [12]: safe for plant growth; pest or weed control at 5 ppm [13]: ≥ 90%; pest or weed control at 10 ppm [13]: ≥ 90%; pest or weed control at 5 ppm [14]: ≥ 90%; pest or weed control at 10 ppm [14]: ≥ 90%; pest or weed control at 5 ppm [15]: ≥ 90%; pest or weed control at 10 ppm [15]: ≥ 90%; pest or weed control at 5 ppm [16]: ≥ 90%; pest or weed control at 10 ppm [16]: ≥ 90%; pest or weed control at 5 ppm [17]: ≥ 90%; pest or weed control at 10 ppm [17]: ≥ 90% |
| O=C(OCCO)c1cn(C2CC2)c2cc(OCC(F)(F)F)c(F)cc2c1=O [Compound 275] | ≥ 90 | ≥ 90 | ≥ 90 | ≥ 90 | ≥ 90 | ≥ 90 | ≥ 90 | ≥ 90 | ≥ 90 | ≥ 90 | ≥ 90 | ≥ 90 | ≥ 90 | ≥ 90 | ≥ 90 | ≥ 90 | ≥ 90 | ≥ 90 | ≥ 90 | ≥ 90 | Rate of chlorophyll content increase (%) [11]: 13%; Rate of growth rate increase (%) [11]: 12%; Rate of leaf area increase (%) [11]: 11%; safety for plant growth (discoloration, necrosis, wilt, malformation) [12]: safe for plant growth; pest or weed control at 5 ppm [13]: ≥ 90%; pest or weed control at 10 ppm [13]: ≥ 90%; pest or weed control at 5 ppm [14]: ≥ 90%; pest or weed control at 10 ppm [14]: ≥ 90%; pest or weed control at 5 ppm [15]: ≥ 90%; pest or weed control at 10 ppm [15]: ≥ 90%; pest or weed control at 5 ppm [16]: ≥ 90%; pest or weed control at 10 ppm [16]: ≥ 90%; pest or weed control at 5 ppm [17]: ≥ 90%; pest or weed control at 10 ppm [17]: ≥ 90% |
| COCCOC(=O)c1cn(C2CC2)c2cc(OC)c(F)cc2c1=O [Compound 281] | ≥ 90 | ≥ 90 | ≥ 90 | ≥ 90 | ≥ 90 | ≥ 90 | ≥ 90 | ≥ 90 | ≥ 90 | ≥ 90 | ≥ 90 | ≥ 90 | ≥ 90 | ≥ 90 | ≥ 90 | ≥ 90 | ≥ 90 | ≥ 90 | ≥ 90 | ≥ 90 | Rate of chlorophyll content increase (%) [11]: 16%; Rate of growth rate increase (%) [11]: 13%; Rate of leaf area increase (%) [11]: 13%; safety for plant growth (discoloration, necrosis, wilt, malformation) [12]: safe for plant growth; pest or weed control at 5 ppm [13]: ≥ 90%; pest or weed control at 10 ppm [13]: ≥ 90%; pest or weed control at 5 ppm [14]: ≥ 90%; pest or weed control at 10 ppm [14]: ≥ 90%; pest or weed control at 5 ppm [15]: ≥ 90%; pest or weed control at 10 ppm [15]: ≥ 90%; pest or weed control at 5 ppm [16]: ≥ 90%; pest or weed control at 10 ppm [16]: ≥ 90%; pest or weed control at 5 ppm [17]: ≥ 90%; pest or weed control at 10 ppm [17]: ≥ 90% |
| COCCOC(=O)c1cn(C2CC2)c2cc(OC(C)(C)C)c(F)cc2c1=O [Compound 287] | ≥ 90 | ≥ 90 | ≥ 90 | ≥ 90 | ≥ 90 | ≥ 90 | ≥ 90 | ≥ 90 | ≥ 90 | ≥ 90 | ≥ 90 | ≥ 90 | ≥ 90 | ≥ 90 | ≥ 90 | ≥ 90 | ≥ 90 | ≥ 90 | ≥ 90 | ≥ 90 | Rate of chlorophyll content increase (%) [11]: 13%; Rate of growth rate increase (%) [11]: 10%; Rate of leaf area increase (%) [11]: 10%; safety for plant growth (discoloration, necrosis, wilt, malformation) [12]: safe for plant growth; pest or weed control at 5 ppm [13]: ≥ 90%; pest or weed control at 10 ppm [13]: ≥ 90%; pest or weed control at 5 ppm [14]: ≥ 90%; pest or weed control at 10 ppm [14]: ≥ 90%; pest or weed control at 5 ppm [15]: ≥ 90%; pest or weed control at 10 ppm [15]: ≥ 90%; pest or weed control at 5 ppm [16]: ≥ 90%; pest or weed control at 10 ppm [16]: ≥ 90%; pest or weed control at 5 ppm [17]: ≥ 90%; pest or weed control at 10 ppm [17]: ≥ 90% |
| COCCOC(=O)c1cn(C2CC2)c2cc(OCC(F)(F)F)c(F)cc2c1=O [Compound 292, 2-methoxyethyl 1-cyclopropyl-6-fluoro-4-oxo-7-(2,2,2-trifluoroethoxy)-1,4-dihydroquinoline-3-carboxylate] | ≥ 90 | ≥ 90 | ≥ 90 | ≥ 90 | ≥ 90 | ≥ 90 | ≥ 90 | ≥ 90 | ≥ 90 | ≥ 90 | ≥ 90 | ≥ 90 | ≥ 90 | ≥ 90 | ≥ 90 | ≥ 90 | ≥ 90 | ≥ 90 | ≥ 90 | ≥ 90 | Rate of chlorophyll content increase (%) [11]: 16%; Rate of growth rate increase (%) [11]: 15%; Rate of leaf area increase (%) [11]: 15%; safety for plant growth (discoloration, necrosis, wilt, malformation) [12]: safe for plant growth; pest or weed control at 5 ppm [13]: ≥ 90%; pest or weed control at 10 ppm [13]: ≥ 90%; pest or weed control at 5 ppm [14]: ≥ 90%; pest or weed control at 10 ppm [14]: ≥ 90%; pest or weed control at 5 ppm [15]: ≥ 90%; pest or weed control at 10 ppm [15]: ≥ 90%; pest or weed control at 5 ppm [16]: ≥ 90%; pest or weed control at 10 ppm [16]: ≥ 90%; pest or weed control at 5 ppm [17]: ≥ 90%; pest or weed control at 10 ppm [17]: ≥ 90% |
| COCCOC(=O)c1cn(C2CC2)c2cc(OC3CC3)c(F)cc2c1=O [Compound 294, 2-methoxyethyl 7-cyclopropoxy-1-cyclopropyl-6-fluoro-4-oxo-1,4-dihydroquinoline-3-carboxylate] | ≥ 90 | ≥ 90 | ≥ 90 | ≥ 90 | ≥ 90 | ≥ 90 | ≥ 90 | ≥ 90 | ≥ 90 | ≥ 90 | ≥ 90 | ≥ 90 | ≥ 90 | ≥ 90 | ≥ 90 | ≥ 90 | ≥ 90 | ≥ 90 | ≥ 90 | ≥ 90 | Rate of chlorophyll content increase (%) [11]: 10%; Rate of growth rate increase (%) [11]: 9%; Rate of leaf area increase (%) [11]: 12%; safety for plant growth (discoloration, necrosis, wilt, malformation) [12]: safe for plant growth; pest or weed control at 5 ppm [13]: ≥ 90%; pest or weed control at 10 ppm [13]: ≥ 90%; pest or weed control at 5 ppm [14]: ≥ 90%; pest or weed control at 10 ppm [14]: ≥ 90%; pest or weed control at 5 ppm [15]: ≥ 90%; pest or weed control at 10 ppm [15]: ≥ 90%; pest or weed control at 5 ppm [16]: ≥ 90%; pest or weed control at 10 ppm [16]: ≥ 90%; pest or weed control at 5 ppm [17]: ≥ 90%; pest or weed control at 10 ppm [17]: ≥ 90% |
